In patent US8952024B2, “Herbicidal pyrimidone derivatives” (E I du Pont de Nemours and Company, priority 2009, dated 2015):

Assays:
Format in all cases: in vivo
[1] = test system: canarygrass (Phalaris minor); test: Test B postemergence plant response
Summary of the method: (§1)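 Plants at the 1- to 4-leaf stage (2 to 18 cm tall), grown in pots of peat moss/vermiculite medium with wetting agent and starter nutrients, received postemergence applications of test chemicals. After 13 to 15 days in a greenhouse, injury was rated visually against untreated controls on a 0 (no effect) to 100 (complete control) scale.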

[2] = test system: winter barley (Hordeum vulgare); test: Test B postemergence plant response
Summary of the method: as §1

[3] = test system: chickweed (Stellaria media); test: Test B postemergence plant response
Summary of the method: as §1

[4] = test system: windgrass (Apera spica-venti); test: Test B postemergence plant response
Summary of the method: as §1

[5] = test system: goosegrass (Eleusine indica); test: Test B pre-/postemergence plant response; settings: Preemergence, 62 g ai/ha; scale 0 to 100, 0 no effect, 100 complete control
[6] = test system: corn (Zea mays); test: Test A pre-/postemergence plant response
Summary of the method: (§2)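 Injury was scored visually after roughly ten days against untreated controls, 0 = no effect, 100 = complete control. Test chemicals in a surfactant-containing non-phytotoxic solvent were sprayed either onto soil preemergence or onto one- to two-leaf, 2–10 cm plants postemergence.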

[7] = test system: large crabgrass (Digitaria sanguinalis); test: Test A pre-/postemergence plant response
Summary of the method: as §2

[8] = test system: velvetleaf (Abutilon theophrasti); test: Test A pre-/postemergence plant response
Summary of the method: as §2

[9] = test system: giant foxtail (Setaria faberii); test: Test A pre-/postemergence plant response
Summary of the method: as §2

[10] = test system: morningglory (Ipomoea spp.); test: Test A pre-/postemergence plant response; settings: approx. ten days; for Plant response rating, Morningglory: 500 g ai/ha
Summary of the method: as §2

[11] = test system: wheat (Triticum aestivum); test: Test A pre-/postemergence plant response
Summary of the method: as §2

[12] = test system: nightshade (eastern black nightshade, Solanum ptycanthum); test: Test B pre-/postemergence plant response; settings: Preemergence
Summary of the method: (§3)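 Greenhouse herbicide screen. Pre- and postemergence (1- to 4-leaf) spray of compound in solvent/surfactant mixture; loam–sand soil for pre, peat/vermiculite medium for post. Visual control rating 0–100 at 13 to 15 days after treatment.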

[13] = test system: sunflower (common oilseed sunflower, Helianthus annuus); test: Test B pre-/postemergence plant response; settings: Preemergence
Summary of the method: as §3

[14] = test system: galium (catchweed bedstraw, Galium aparine); test: Test B pre-/postemergence plant response; settings: Preemergence
Summary of the method: as §3

[15] = 31 g ai/ha, postemergence, scale 0 to 100, 0 is no effect, 100 is complete control
[16] = Postemergence, 62 g ai/ha, scale 0 (no effect) to 100 (complete control), 13 to 15 days
[17] = Postemergence, 125 g ai/ha, visual rating after 13 to 15 days, scale 0 (no effect) to 100 (complete control)
[18] = Postemergence, 250 g ai/ha, scale 0 to 100 (0 no effect, 100 complete control)
[19] = Postemergence, 125 g ai/ha, visual injury, 0 to 100 scale (0 no effect, 100 complete control), approx. ten days
[20] = Postemergence, 500 g ai/ha, 0 to 100 scale, 0 = no effect, 100 = complete control, approx. ten days
[21] = Preemergence, 125 g ai/ha, 0 to 100 scale, 0 = no effect, 100 = complete control
[22] = Preemergence, 500 g ai/ha, visual injury, 0 to 100 scale (0 no effect, 100 complete control), approx. ten days
[23] = 31 g ai/ha, scale 0 to 100 (0 no effect, 100 complete control)
[24] = 62 g ai/ha, scale 0 to 100, 0 no effect, 100 complete control

Cc1ccc(F)c(-n2c(-c3ccccc3)ncc(C(=O)C3=C(O)CCCC3=O)c2=O)c1 [Compound 51]
Plant response rating, Canarygrass [1, 15]: 60
Plant response rating, Canarygrass [1, 16]: 60
Plant response rating, Canarygrass [1, 17]: 60
Plant response rating, Canarygrass [1, 18]: 98
Plant response rating, Barley [2, 15]: 5
Plant response rating, Barley [2, 16]: 25
Plant response rating, Barley [2, 17]: 30
Plant response rating, Barley [2, 18]: 50
Plant response rating, Chickweed [3, 15]: 80
Plant response rating, Chickweed [3, 16]: 80
Plant response rating, Chickweed [3, 17]: 85
Plant response rating, Chickweed [3, 18]: 95
Plant response rating, Windgrass [4, 15]: 50
Plant response rating, Windgrass [4, 16]: 60
Plant response rating, Windgrass [4, 17]: 60
Plant response rating, Windgrass [4, 18]: 85
Plant response rating, Goosegrass [5]: 100
Corn plant response rating [6, 19]: 0
Plant response rating, Corn [6, 20]: 80
Plant response rating, Corn [6, 21]: 0
Plant response rating, Corn [6, 22]: 0
Crabgrass, Large plant response rating [7, 19]: 90
Plant response rating, Crabgrass, Large [7, 20]: 100
Plant response rating, Crabgrass, Large [7, 21]: 30
Plant response rating, Crabgrass, Large [7, 22]: 100
Velvetleaf plant response rating [8, 19]: 100
Plant response rating, Velvetleaf [8, 20]: 100
Plant response rating, Velvetleaf [8, 21]: 70
Plant response rating, Velvetleaf [8, 22]: 90
Foxtail, Giant plant response rating [9, 19]: 90
Plant response rating, Foxtail, Giant [9, 20]: 90
Plant response rating, Foxtail, Giant [9, 21]: 30
Plant response rating, Foxtail, Giant [9, 22]: 100
Morningglory plant response rating ([10]; Postemergence, 125 g ai/ha, visual injury, 0 to 100 scale (0 no effect, 100 complete control)): 100
Plant response rating, Morningglory ([10]; Postemergence, 0 to 100 scale, 0 = no effect, 100 = complete control): 100
Plant response rating, Morningglory ([10]; Preemergence, visual injury, 0 to 100 scale (0 no effect, 100 complete control)): 90
Wheat plant response rating [11, 19]: 0
Plant response rating, Wheat [11, 20]: 0
Plant response rating, Wheat [11, 21]: 0
Plant response rating, Wheat [11, 22]: 0
Plant response rating, Nightshade ([12]; 250 g ai/ha, 0 to 100 scale): 100
Plant response rating, Nightshade [12, 23]: 98
Plant response rating, Nightshade [12, 24]: 98
Nightshade plant response rating ([12]; 125 g ai/ha, 0 to 100 scale): 98
Plant response rating, Sunflower ([13]; 250 g ai/ha, 0 to 100 scale): 75
Plant response rating, Sunflower [13, 23]: 20
Sunflower plant response rating ([13]; 125 g ai/ha, 0 to 100 scale): 75
Plant response rating, Galium ([14]; 250 g ai/ha, 0 to 100 scale): 95
Plant response rating, Galium [14, 23]: 0
Plant response rating, Galium [14, 24]: 75
Galium plant response rating ([14]; 125 g ai/ha, 0 to 100 scale): 80
